# Source: patent US6664271B1, “Immunopotentiator agents” (Eli Lilly and Company, priority 1999, dated 2003)
# Marks after values point to notes of the source that are not given here.
# Assays:
# chicken leukocytes = experiment: cells; format: cell-based
# Method: Various compounds of Formula I were evaluated for in vitro T-lymphocyte blastogenic activity with chicken leukocytes according to the steps described in the following procedure:
# (a) Exsanguination step. The leukocytes were obtained from 3-6 week old Hubbard/Peterson broiler chickens. Initially, the chickens were rendered unconscious in a CO2 chamber. The chickens were then exsanguinated via cardiac puncture. In the exsanguination procedure, a syringe was connected to a needle, and the needle was inserted into the area at the base of the neck under the “V” formed by the breast and sternum. After the needle was properly inserted, continuous vacuum was applied to a syringe (connected to the needle) by pulling back on the plunger. It is important to promptly carry out this withdrawal action, because there is only a 10-15 seconds time period after the blood has starting flowing into the syringe before the blood coagulates, and becomes unusable. As soon as the syringe is full (or prior to complete filling if too much time has elapsed such that the blood begins to coagulate), the whole uncoagulated blood is transferred to a tube having the anticoagulant EDTA therein. The tube is then rotated to mix the whole blood and the EDTA. Alternatively, the whole blood can be withdrawn directly into a vacuum container already having EDTA therein, rather than into a syringe.
# (b) Leukocyte isolation step. Numerous methods for isolating leukocytes from (uncoagulated) whole blood are known in the art. In a preferred method, the sterile whole blood was combined with methylcellulose (1.5:1). Any blood containing clots was discarded. The mixture was centrifuged at 30×g for ten minutes (300 rpm on Beckman GS-6R centrifuge). The top layer (leukocytes in supernatant) was decanted into a sterile 50 ml conical tube, while taking care to prevent contamination of the sample by red blood cells. The decanted layer was then centrifuged at 200×g for ten minutes (1500 rpm on the Beckman GS-6R centrifuge). The supernatant liquid was discarded, and the resulting cell “pellet” was retained.
# The cells were then washed in a solution containing 10 ml PBS (phosphate buffered saline) and Gentamycin (gentamicin sulfate) at a concentration of 50 μg/ml. This solution was centrifuged at 100×g (1000 rpm on the Beckman centrifuge) for five minutes, and the supernatant liquid was discarded. The washing step (including the centrifuging at 100×g) was repeated to ensure complete removal of the methylcellulose. The use of media such as DMEM ([…]) was avoided in the washing steps, since such media may cause agglutination of the white blood cells. Finally, the cells were then suspended in an appropriate media, such as RPMI 1640 tissue cell culture medium, supplemented with phenol red, NaHCO3, and L-Glutamide. Supplemented RPMI 1640 is available from Sigma-Aldrich Chemical Co.
# (c) Cell counting and cell viability step. The cells were counted and checked for viability using the Trypan Blue method of exclusion. 0.1 ml of the cell suspension was placed in a 4-5 ml small culture tube along with 0.7 ml HBSS (Hank's Buffered Saline Solution), available from Sigma-Aldrich, and 0.2 ml of a 0.4% solution of aqueous Trypan Blue stain, available from GIBCO BRL, of Grand Island, N.Y. The components were mixed thoroughly but gently, and allowed to sit for 5 minutes (no longer than 15 minutes). The components should not be exposed to the stain for extended periods of time, because such extended exposure may permit viable cells, as well as non-viable cells, to take up dye.
# A cover slip was placed on a Bright Line hemacytometer, available from Howser Scientific, and 10 μl of the mixture from the tube was transferred to each chamber. Non-viable cells appear blue under a microscope. The viable cells in one of the 16-square corners of the hemacytometer were then counted. […]
# [1] = tested on: Actinobacillus pleuropneumoniae (App) 92C; experiment: Seeder Pig Infection Model (Example 76); format: in vivo; conditions: contact pigs
# Description: The compound prepared in Example 30, namely (S)-ethyl 1-(2-thiopheneacetyl)-3-piperidinecarboxylate, was utilized in a test formulation to investigate its efficacy to prevent or control the horizontal transmission of Actinobacillus pleuropneumoniae (App) 92C in a Seeder Pig Infection Model. The seeder pig model was chosen for the efficacy evaluation of the immunopotentiator compounds and analogs to prevent or control disease caused by App in recently weaned pigs. This model mimics a field outbreak of pneumonia in nursery pigs.
# The animals tested were purchased from a commercial herd source known to be free of obvious disease and not recently on medication. There were a total of seventy-two (72) pigs, recently weaned and weighing in the approximate range of 15-20 pounds (6.8-9.1 kg). The challenged pigs were infected with an intranasal inoculation of Actinobacillus pleuropneumoniae (App), lyophilized #92C, a serotype 1, Iowa strain. The challenge material was a saline suspension containing a 2.5 hour log-phase growth broth culture, centrifuged and reconstituted at a concentration that contains 3×10^7 App 92C colony forming units (CFU) per pig in a 4 ml dose. An approved Animal Use Protocol governed the conduct of this trial.
# Upon arrival, the pigs were double ear-tagged and divided into contact (48) and seeder (24) pig/groups. The seeder pigs were placed in two (2) groups of twelve (12) pigs per room (Groups 1). The contact pigs were placed in (8) groups of six (6) pigs per room (Groups 2-9). Lilly swine ration, AP11 SW and water were available ad libitum. All animals were observed daily and a room record was recorded.
# Day −5 Pigs arrive for the acclimation period of a minimum of 5 days.
# Day 0 Daily individual observations of clinical impression signs begin and continue throughout the experiment. These were scored on a 0 to 3 scale (0=normal: alert, responsive; 1=slight: dyspnea, rough coat, slow to react; 2=moderate: lethargic, rough coat, breathing difficulty; 3=severe: unresponsive, breathing distress (open mouth).
# Day 0 Individual animal weights of the contacts were taken.
# Day 0 2 hours prior to infection of the seeder pigs, the contact pigs were injected via the intraperitoneal route with the test formulations. Two (2) rooms of six (6) pigs were treated with each of the following dose levels: 0 μg/pig, 125 μg/pig, 250 μg/pig, and 500 μg/pig.
# Day 0 Twenty-four (24) seeder pigs were challenged with a dose containing […] CFU of Actinobacillus pleuropneumoniae (App) 92C inoculum. The infected seeder pigs were then placed, 3 pigs per room, with the 6 treated contact pigs. To maximize the horizontal transmission of App, the living space in the rooms was reduced from 120 sq. ft. to 60 sq. ft., by placing partitions in the rooms.
# Day +3 to +5 The seeder pigs were removed from all rooms. The pigs were euthanized, lung pathology was determined and lung cultures were taken. Moribund animals were euthanized. Any animals that succumbed to infection while on test were necropsied, lung lesions were scored and a sample was taken for bacterial isolation.
# Day +14 The experiment was terminated. The contact pigs (Groups 2-9) were weighed, euthanized, and necropsied, with lung lesion scoring and bacterial culture assessment.
# The test formulations were in an Acetate Buffered Saline vehicle. Samples were analyzed for potency. Data obtained was analyzed for weight gain, mortality, clinical impression scores, lung lesions, and bacteriologic recovery. Statistics were performed as appropriate to detect differences between groups.
smiles,measurement,setting,value
"CCOC(=O)[C@H]1CCCN(C(=O)Cc2cccs2)C1 [Example 30, (S)-Ethyl 1-(2-Thiopheneacetyl)-3-piperidinecarboxylate]",minimal effective concentration,"chicken leukocytes; Gallus gallus, Leukocyte, chicken leukocytes, read at 72 hours, read-out: MSC (Minimum Stimulatory Concentration)",0.1 µg/mL
same,MTC (Maximum Tolerable Concentration prior to causing cytotoxicity),"chicken leukocytes; Hubbard/Peterson broiler, chicken, 72 h",10 µg/mL
same,% Lung Consolidation,[1]; 125 μg/pig intraperitoneal,14.0%
same,% Lung Lesions,[1]; 125 μg/pig intraperitoneal,41.5%
same,% Mortality,[1]; 125 μg/pig intraperitoneal,16.6%
same,App Reisolation,[1]; 125 μg/pig intraperitoneal,41.5
same,% Lung Consolidation,[1]; 250 μg/pig intraperitoneal,0.44%
same,% Lung Lesions,[1]; 250 μg/pig intraperitoneal,0* %
same,% Mortality,[1]; 250 μg/pig intraperitoneal,0%
same,App Reisolation,[1]; 250 μg/pig intraperitoneal,0*
same,% Lung Consolidation,[1]; 500 μg/pig intraperitoneal,4.0%
same,% Lung Lesions,[1]; 500 μg/pig intraperitoneal,42.0%
same,% Mortality,[1]; 500 μg/pig intraperitoneal,0%
same,App Reisolation,[1]; 500 μg/pig intraperitoneal,42
